Source: PMC8000724, “Trans-Epithelial Transport, Metabolism, and Biological Activity Assessment of the Multi-Target Lupin Peptide [sequence] (P5) and Its Metabolite [sequence] (P5-Met)” (Nutrients, 2021)
Read-outs that look alike come from different tables or passages of the source.

Assays:
[1] = test system: differentiated Caco-2 cells; conditions: cited from earlier work
Method: From a physiological point of view, the dynamic equilibrium between the transport and degradation of bioactive peptides is crucially important. […] Indeed, the transport is more efficient and its degradation less extensive when P5 is incubated in the presence of peptides P3 and P7. It is important to note, however, that P5 and P7 have completely different behaviors, since the transport rate of P5 tested alone is 1.8 ...

HepG2 cells = assay: Fluorescent LDL uptake by HepG2 cells; format: cell-based, human; conditions: PCSK9 alone 4 µg/mL, 2 h; mean ± SD
Method: HepG2 cells (3 × 10^4/well) were seeded in 96-well plates and kept in complete growth medium for 2 days before treatment. The third day, cells were washed with PBS and then starved overnight (O/N) in DMEM without FBS and antibiotics. After starvation, they were treated with 4.0 μg/mL PCSK9 and 4.0 μg/mL PCSK9 + P5 and P5-met peptides (50.0 µM), and vehicle (H2O) for 2 h with at 37 °C under 5% CO2 atmosphere. At the end of the treatment, the culture medium was replaced with 50 μL/well LDL-DyLight™ 550 working solution (Cayman Chemical Company, Ann Arbor, MI, USA) prepared in DMEM without FBS and antibiotics. The cells were additionally incubated for 2 h at 37 °C and then the culture medium was aspirated and replaced with PBS (100 μL/well). The degree of LDL uptake was measured using the Synergy H1 fluorescent plate reader (Winooski, VT, USA) (excitation and emission wavelengths 540 and 570 nm, respectively). Fluorescent LDL-uptake was finally assessed following optimized protocol.

[2] = test system: LDLR on HepG2 cell surface; assay: In-cell Western (ICW) assay, LDLR localized on HepG2 cell surface; format: cell-based, human; conditions: PCSK9 alone 4 µg/mL, 2 h, mean ± SD
Method: For the experiments, a total of 3 × 10^4 HepG2 cells/well were seeded in 96-well plates. The following day, cells were washed with PBS and then starved overnight (O/N) in DMEM without FBS and antibiotics. After starvation, HepG2 cells were treated with 4.0 μg/mL PCSK9-WT and 4.0 μg/mL PCSK9 + peptides P5 and/or P5-met (50 µM) and vehicle (H2O) for 2 h at 37 °C under 5% CO2 atmosphere. Subsequently, they were fixed in 4% paraformaldehyde for 20 min at room temperature (RT). Cells were washed 5 times with 100 µL of PBS/well (each wash was for 5 min at RT) and the endogenous peroxides activity quenched adding 3% H2O2 for 20 min at RT. Non-specific sites were blocked with 100 µL/well of 5% bovine serum albumin (BSA, Sigma) in PBS for 1.5 h at RT. LDLR primary antibody solution (1:3000 in 5% BSA in PBS, 25 µL/well) was incubated O/N at +4 °C. Subsequently, the primary antibody solution was discarded and each sample was washed 5 times with 100 µL/well of PBS (each wash was for 5 min at RT). Goat anti-rabbit Ig-HRP secondary antibody solution (Santa Cruz) (1:6000 in 5% BSA in PBS, 50 µL/well), was added and incubated 1 h at RT. The secondary antibody solution was washed 5 times with 100 µL/well of PBS (each wash for 5 min at RT). Freshly prepared TMB substrate (Pierce, 100 µL/well) was added and the plate was incubated at RT until desired color was developed. The reaction was stopped with 2 M H2SO4 and then the absorbance at 450 nm was measured using the microplate reader Synergy H1 (Winooski, VT, USA). After the read, cells were stained by adding 1× Janus Green stain, incubating for 5 min at RT. The dye was removed and the sample washed 5 times with water. Afterward 100 µL 0.5 M HCl for well were added and incubated for 10 min. After 10 seconds shaking, the OD at 595 nm was measured using the microplate reader Synergy H1 (Winooski, VT, USA).

## LTFPGSAED [Peptide P7, lupin peptide used in mixture with P5 in the transport experiments]
[1]; in mixture
  Transport rate across Caco-2 monolayer: 1.98 ± 0.21 ng/(mL × min)
[1]; tested alone
  Transport rate across Caco-2 monolayer: 4.2 ± 0.6 ng/(mL × min)

## PCSK9: proprotein convertase subtilisin/kexin type-9 protein added to HepG2 cells at 4.0 μg/mL
HepG2 cells
  Reduction of ability of HepG2 cells to uptake fluorescent LDL versus untreated cells: 43.5 ± 9.7%
[2]
  Decrease of LDLR protein levels on HepG2 cell surface versus the control cells: 24.7 ± 1.9%
